Results as given in paper PMC3877268, “Reconstructed Ancestral Myo-Inositol-3-Phosphate Synthases Indicate That Ancestors of the Thermococcales and Thermotoga Species Were More Thermophilic than Their Descendants” (PLoS ONE, 2013).

Columns and labels:
Experiment in all cases: periodate / malachite green phosphate assay, Lineweaver-Burk
Type in all cases: biochemical, synthetic construct
ATM_T3 = test system: T1, ATM_T3; details: 15 mM NH4Cl, 10 mM imidazole-HCl pH 7.8, 85 °C (Topt)
T1 construct: reconstructed node T ancestor, one of four (125/126 Ser/Lys or Thr/Glu); gene by GenScript, pBAD TOPO, E. coli TOP10
Source text: periodate / malachite green phosphate assay, Lineweaver-Burk on ATM_T3

ATM_T2 = test system: T2, ATM_T2; details: 15 mM NH4Cl, 10 mM imidazole-HCl pH 7.8, 83 °C (Topt)
T2 construct: reconstructed node T ancestor, one of four (125/126 Ser/Lys or Thr/Glu); gene by GenScript, pBAD TOPO, E. coli TOP10
Source text: periodate / malachite green phosphate assay, Lineweaver-Burk on ATM_T2

ACM_C2 = test system: T3, ACM_C2; details: 15 mM NH4Cl, 10 mM imidazole-HCl pH 7.8, 95 °C (Topt)
T3 construct: gene by GenScript, pBAD TOPO, E. coli TOP10
Source text: periodate / malachite green phosphate assay, Lineweaver-Burk on ACM_C2

AAM_A2 = test system: T4, AAM_A2; details: 15 mM NH4Cl, 10 mM imidazole-HCl pH 7.8, 99 °C (Topt)
T4 construct: gene by GenScript, pBAD TOPO, E. coli TOP10
Source text: periodate / malachite green phosphate assay, Lineweaver-Burk on AAM_A2

ACM_C1 = test system: T5, ACM_C1; details: 15 mM NH4Cl, 10 mM imidazole-HCl pH 7.8, 95 °C (Topt)
T5 construct: gene by GenScript, pBAD TOPO, E. coli TOP10
Source text: periodate / malachite green phosphate assay, Lineweaver-Burk on ACM_C1

ATM_T1 = test system: T6, ATM_T1; details: 15 mM NH4Cl, 10 mM imidazole-HCl pH 7.8, 90 °C (Topt)
T6 construct: reconstructed node T ancestor, one of four (125/126 Ser/Lys or Thr/Glu); gene by GenScript, pBAD TOPO, E. coli TOP10
Source text: periodate / malachite green phosphate assay, Lineweaver-Burk on ATM_T1

AAM_A1 = test system: T7, AAM_A1; details: 15 mM NH4Cl, 10 mM imidazole-HCl pH 7.8, 99 °C (Topt)
T7 construct: gene by GenScript, pBAD TOPO, E. coli TOP10
Source text: periodate / malachite green phosphate assay, Lineweaver-Burk on AAM_A1

ATM_T4 = test system: T8, ATM_T4; details: 15 mM NH4Cl, 10 mM imidazole-HCl pH 7.8, 83 °C (Topt)
T8 construct: reconstructed node T ancestor, one of four (125/126 Ser/Lys or Thr/Glu); gene by GenScript, pBAD TOPO, E. coli TOP10
Source text: periodate / malachite green phosphate assay, Lineweaver-Burk on ATM_T4

Km (ATM_T3): 540 ± 150 µM | Km (ATM_T2): 460 ± 80 µM | Km (ACM_C2): 6.27 ± 1.94 mM | Km (AAM_A2): 1.32 ± 0.11 mM | Km (ACM_C1): 2.34 ± 0.46 mM | Km (ATM_T1): 630 ± 100 µM | Km (AAM_A1): 2.77 ± 0.6 mM | Km (ATM_T4): 600 ± 60 µM
Structure (SMILES): O=P(O)(O)OC[C@H]1OC(O)[C@H](O)[C@@H](O)[C@@H]1O (some centres unmarked) [glucose-6-phosphate]
